Reference: patent US9776992B2, “1-oxo-1,2-dihydroisoquinolin-7-yl-(5-substituted-thiophen-2-yl)-sulfonamide compounds, formulations containing those compounds, and their use as AICARFT inhibitors in the treatment of cancers” (Eli Lilly and Company, priority 2014, dated 2017)

Tests used:
[1] = tested on: panel of 46 cancer cell lines; experiment: Low folate in vitro proliferation assay, cancer cell line panel (Alamar Blue); details: media conditions with folate levels similar to human plasma; summary of Table 18
Method: Supplement 500 mL Gibco folate free RPMI media (Gibco #27016-021) with 1 M Hepes (5 mL), 100 mM Na pyruvate (5 mL) and 0.5 g/mL glucose (2.5 mL) to match high folate ATCC RPMI media (ATCC #30-2001). To make complete media, both regular and folate free RPMI medias are supplemented with 10% FBS. The addition of FBS to folate free media adds low levels of folate and is now considered to be low folate media.
Transfer cells growing in high folate RPMI media (ATCC #30-2001)+10% FBS (Hyclone #SH30070.03) to low folate RPMI media and folate starve for 7 days. Wash cells grown in high folate media with PBS, trypsinize, and resuspend in low folate media. Grow cells in low folate media for 7 days making sure to seed tissue culture flasks at a density that will not exceed 80% confluence after 7 days. Wash cells in PBS, trypsinize, and resuspend in low folate media and count cells. Seed 96 well poly D lysine plate (Corning #354640) at 3000 cells/well in 100 μl low folate media. Allow cells to attach overnight. Prepare 10 mM DMSO stocks of compounds to be tested in proliferation assay. Determine concentrations to be tested and dilute compounds to 2× final concentration in low folate media. Calculate % DMSO of this solution and use this value as diluent. […] Read plates on the Envision plate reader (Perkin Elmer), or other fluorescent plate reader, with excitation at 570 nm and emission at 585 nm. […]

[2] = tested on: colorectal carcinoma HCT-116; experiment: Low folate in vitro proliferation assay, HCT-116; assay type: cell-based; details: Homo sapiens, 168 h; HCT-116, low folate media, 7 days
Source text: Allow cells to attach overnight. […] Final concentration of compounds will be 1×. […] Dose cells with compounds of interest for 7 days. […] Determine % inhibition for each sample (see Table 18).

[3] = tested on: human colorectal adenocarcinoma cell line HCT-116 mouse xenograft; experiment: Antitumor efficacy in HCT-116 mouse xenograft tumor model; assay type: in vivo; details: for % T/C: HCT-116 xenograft, Day 23, Delta T/C, * = P<0.05
Method: (§1) In vivo studies are performed using female athymic nude mice (Harlan) with a bodyweight of 23-28 g at first measurement. Upon receipt and throughout the study, the animals are housed 5 animals per cage in appropriately sized solid-bottom cages with contact bedding. The animal room is maintained on a 12-hour light/dark cycle. Animals are acclimated for 14 days prior to implantation of the NCI-H460 or HCT-116 cells on low folate diet (Teklad 130451) ad libitum and autoclaved tap water is provided ad libitum. The HCT-116 and NCI-H460 cell line are obtained from American Type Culture Collection (ATCC) and is cultured following ATCC instructions. Cells used for implantation are harvested during log phase growth and suspended in serum-free media. The suspended cells are then diluted 1:1 with BD Matrigel Matrix (ref 354234). Cells are injected in the right flank with 5.0E+06 cells (0.2 mL cell/Matrigel suspension). Tumors are monitored beginning day 8 post implant. Animals are redistributed into groups with 5-6 animals per group utilizing proprietary randomization software when average tumor volume reaches 200 mm^3. Groups 1-12 are maintained on a low folate diet (Teklad 130451) and folic acid (Sigma F8798 Lot #SLBH0909V) administration at doses listed in the Table 19 began 28 hours prior to dose initiation and 4 hours prior to each dose. Folic acid is formulated weekly in PBS and dosed via oral gavage at 0.2 mL. Groups 13-16 are placed on standard chow (Teklad 2920X) at randomization. The compound is formulated weekly in 20% HPBCD in Phosphate buffer pH 8 with one molar equivalent NaOH added. The formulated compound is administered at the doses and schedules indicated in Table 19 by oral gavage (0.2 mL). The vehicle is also given QD as the control arm of the study. Tumor volume and body weight are measured 2× a week. Tumor volume is determined by caliper measurements (mm) and using the formula for an ellipsoid sphere: tumor volume (mm^3)=length×width^2/2, where length and width refer to the larger and smaller perpendicular dimensions collected at each measurement. The animal behavior and animal health are monitored daily during dosing period.
The statistical analysis of the tumor volume data begins with a data transformation to a log scale to equalize variance across time and treatment groups. The log volume data are analyzed with a two-way repeated measures analysis of variance by time and treatment using the MIXED procedures in SAS software (Version 9.3). The correlation model for the repeated measures is Spatial Power. Treated groups are compared to the control group at each time point. The MIXED procedure is also used separately for each treatment group to calculate adjusted means and standard errors at each time point. Both analyses account for the autocorrelation within each animal and the loss of data that occurs when animals with large tumors are removed from the study early. The adjusted means and standard errors are plotted for each treatment group vs time. The analysis comparing the treated groups to the control groups at each time point uses the log 10 tumor volumes and produces the p-values. For statistical significance of p-values shown, “*”=P<0.05.
Delta T/C, % calculation is used. Equations: T=Final tumor volume in treated group; T0=Baseline tumor volume in treated group (assumed to be same as C0); C=Final tumor volume in control group; C0=Baseline tumor volume in control group (assumed to be same as T0); Delta T/C, %=100*(T−T0)/(C−C0)

[4] = target: AICARFT (Homo sapiens, UniProt P31939); experiment: AICARFT in vivo target inhibition (IVTI) assay, tumor xenografts (ZMP); design: from tissue; host or cells: HCT-116 and NCI-H460 tumour xenografts in female athymic nude mice; species or system mouse
Method: The in vivo effects of AICARFT inhibition on the concentrations of pathway-related analytes are determined by liquid chromatography-mass spectrometry (LC-MS) analysis of tumor xenografts. Tumor xenograft samples on dry ice are weighed on an analytical balance, transferred to 2 mL Eppendorf Safe-Lock Tube™, and placed on dry ice. An internal standard solution containing 13C5-ZMP (1000 ng/mL), 13C5-AICAr (500 ng/mL), ascorbic acid (0.1%), and formic acid (0.1%) in MeOH/DCM (80:20) is prepared and stored at 20° C. For every mg of tissue in the sample tube, 10 L of internal standard solution is added. Standard curves containing ZMP, dUMP, AICAr at concentrations of 7.6-50,000 ng/mL are prepared separately in the internal standard solution.
One 5 mm steel bead (Qiagen) is added to each sample tube and the tubes are placed on wet ice for 15 minutes. Samples are homogenized on a Qiagen TissueLyser II for 5 minutes at 15 Hz, and then centrifuged on an Eppendorf 5430R microcentrifuge for 10 minutes at 13,000 rpm and 4° C. Aliquots of each supernatant (200 μL) are removed and placed into a deep 96-well plate. Aliquots (200 μL) of each standard curve solution are also placed in a deep 96-well plate. A Beckman Biomek FX liquid handler added DCM (600 μL) and 0.1% ascorbic acid solution (200 μL) to each well. The plate is sealed, vortexed for 5 minutes, and centrifuged for 5 minutes at 4,000 rpm and 4° C. on an Eppendorf 5810R centrifuge. Aliquots (75 μL) of the top layer are transferred to a clean 96-well plate, and an additional 75 μL of 40 mM ammonium acetate, pH 4 is added to each well. The plates are sealed prior to analysis. The LC-MS method utilized a Shimadzu Prominence 20A HPLC system connected to an AB Sciex 5500™ or an AB Sciex 6500™ triple quadrupole mass spectrometer running Analyst® software.

[5] = tested on: human lung carcinoma NCI-H460 mouse xenograft; experiment: Antitumor efficacy in NCI-H460 mouse xenograft tumor model; assay type: in vivo; details: for % T/C: NCI-H460 xenograft, no folic acid, Day 20, Delta T/C, * = P<0.05
Method: as §1, with “Folic acid is formulated weekly in PBS and dosed via oral gavage at 0.2 mL. Groups 13-16 are placed on standard chow (Teklad 2920X) at randomization. The compound is formulated weekly in 20% HPBCD in Phosphate buffer pH 8 with one molar equivalent NaOH added. The formulated compound is administered at the doses and schedules indicated in Table 19 by oral gavage (0.2 mL). The vehicle is also given QD as the control arm of the study.” left out
The statistical analysis of the tumor volume data begins with a data transformation to a log scale to equalize variance across time and treatment groups. The log volume data are analyzed with a two-way repeated measures analysis of variance by time and treatment using the MIXED procedures in SAS software (Version 9.3). […]

Sequence of AICARFT (P31939 whole entry): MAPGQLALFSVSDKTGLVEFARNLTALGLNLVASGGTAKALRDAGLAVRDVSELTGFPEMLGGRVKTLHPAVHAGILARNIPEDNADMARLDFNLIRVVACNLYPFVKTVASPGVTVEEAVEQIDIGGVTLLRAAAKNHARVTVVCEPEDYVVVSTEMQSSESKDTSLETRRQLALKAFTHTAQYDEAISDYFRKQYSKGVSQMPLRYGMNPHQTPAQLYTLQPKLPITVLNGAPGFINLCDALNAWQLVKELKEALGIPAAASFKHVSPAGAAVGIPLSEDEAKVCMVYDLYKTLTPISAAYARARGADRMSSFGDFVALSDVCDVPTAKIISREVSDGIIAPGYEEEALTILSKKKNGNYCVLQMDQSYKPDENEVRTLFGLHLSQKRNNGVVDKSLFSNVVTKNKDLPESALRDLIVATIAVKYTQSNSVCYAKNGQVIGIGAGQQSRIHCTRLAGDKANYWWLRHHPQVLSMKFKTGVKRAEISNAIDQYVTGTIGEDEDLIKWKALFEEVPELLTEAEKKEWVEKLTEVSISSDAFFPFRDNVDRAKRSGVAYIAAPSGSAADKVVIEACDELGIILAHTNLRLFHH

IC50 [2]: 3 nM | Mean tumor ZMP ([4]; HCT-116 xenograft, Group 6, low folate diet, folic acid 0.75 mg/kg (QD × 15, orally), 10 mg/kg QD × 14, orally, Day 23): 20 µM | Mean tumor ZMP ([4]; HCT-116 xenograft, Group 7, low folate diet, folic acid 0.75 mg/kg (QD × 15, orally), 30 mg/kg QD × 14, orally, Day 23): 35 µM | Mean tumor ZMP ([4]; HCT-116 xenograft, Group 14, standard chow, no folic acid, 10 mg/kg QD × 14, orally, Day 23): 7.0 µM | Mean tumor ZMP ([4]; HCT-116 xenograft, Group 15, standard chow, no folic acid, 30 mg/kg QD × 14, orally, Day 23): 26 µM | Mean tumor ZMP ([4]; NCI-H460 xenograft, Group 14, standard chow, no folic acid, 10 mg/kg QD × 13, orally, Day 20): 3.7 µM | Mean tumor ZMP ([4]; NCI-H460 xenograft, Group 15, standard chow, no folic acid, 30 mg/kg QD × 13, orally, Day 20): 66 µM
Compound: O=c1[nH]ccc2cc(F)c(NS(=O)(=O)c3ccc(N4CC[C@@H](O)C4)s3)cc12 [Example 1, N-(6-Fluoro-1-oxo-1,2-dihydroisoquinolin-7-yl)-5-[(3R)-3-hydroxypyrrolidin-1-yl]thiophene-2-sulfonamide]
inhibition of proliferation of cancer cells (in words) [1]: inhibits proliferation of cancer cells | in vivo anticancer activity (in words) ([3]; HCT-116 xenograft tumors, QD continuously for 2 weeks): demonstrates in vivo anticancer activity | % T/C ([3]; Group 6, low folate diet, folic acid 0.75 mg/kg (QD × 15, orally), 10 mg/kg QD × 14, orally): 65* % | % T/C ([3]; Group 7, low folate diet, folic acid 0.75 mg/kg (QD × 15, orally), 30 mg/kg QD × 14, orally): 57* % | % T/C ([3]; Group 14, standard chow, no folic acid, 10 mg/kg QD × 14, orally): 112% | % T/C ([3]; Group 15, standard chow, no folic acid, 30 mg/kg QD × 14, orally): 49% | in vivo anticancer activity (in words) ([5]; NCI-H460 xenograft tumors, QD continuously for 2 weeks): demonstrates in vivo anticancer activity | % T/C ([5]; Group 14, standard chow, 10 mg/kg QD × 13, orally): 113% | % T/C ([5]; Group 15, standard chow, 30 mg/kg QD × 13, orally): 42* %
